Source: US11920165B2, “Cultivation of human noroviruses” (Baylor College of Medicine, priority 2015, dated 2024)
Like-named read-outs stand apart in the source and are kept apart here.

Tests used:
TCH04-577 GII.3 HuNoV [1] = assay: microbe, parasite or virus in culture; details: Norovirus, in Homo sapiens, 72 h, read-out: Fold increase in viral genome copies compared to no bile (0-72 hpi)
Method: (§2) At 72 hours post infection, the cells and media were harvested and viral RNA was quantified by qRT-PCR. Each bile acid was added at a concentration of 0.5 mM.

TCH04-577 GII.3 HuNoV [2] = details: J2 enteroids
Method: as §2

TCH04-577 GII.3 HuNoV [3] = assay: GII.3 replication in J2 jHIE monolayers with ceramide and GCDCA; type: cell-based, human norovirus; details: ceramide alone; 24 hpi
Method: FIG. 32. At least one lipid, ceramide, enhances GII.3 HuNoV replication alone or in combination with the bile acid GCDCA.J2 jHIE monolayers (p.12) were inoculated with 4.3×105 genome equivalents of TCH04-577 for 1 hr, and after washing twice with CMGF(−) media to remove unbound virus, culture continued in differentiation medium for 24 hrs. The amount of infectious virus was quantified after the washing at 1 hpi (black bars) and at 24 hpi (gray bars). Additives were added to the medium during and post inoculation.
(§1) FIG. 33. Ceramide alone, or in combination with the bile acid GCDCA, enhances GII.3 but not GII.4 HuNoV replication. J2 jHIE monolayers (p.23) were inoculated with 4.3×105 or 9×105 genome equivalents of TCH04-577 or TCH12-580, respectively, for 1 hr and, and after washing twice with CMGF(−) media to remove unbound virus, culture continued in differentiation medium for 72 hrs. The amount of infectious virus was quantified after the washing at 1 hpi (black bars) and 72 hpi (gray bars). Additives (500 μM GCDCA or 500 μM GCDCA+50 μM C2-ceramide) were added to the medium during and post inoculation. Error bars denote standard deviation. p<0.01 comparing genome equivalents at 72 hpi between GCDCA and ceramide+GCDCA.

GII.4 HuNoV = GII.4 HuNoV replication in jejunal HIE monolayers with bile, bile fractions or additives (RT-qPCR); type: cell-based, human norovirus; details: GCDCA bile acid
Method: FIGS. 26A-26D. Bile is not required but enhances GII.4 HuNoV replication. […] The monolayers were inoculated with 5.5×10^5 genome equivalents of (FIG. 26A) GII.4/2006b-3 or, (FIG. 26B) GII.4/2009, or (FIGS. 26C and 26D) GII.4/2012-1 in the absence or presence of the indicated bile for 1 hour at 37° C.
as §1
One can analyze these samples by mass spectroscopy to determine the bile acid, lipid, fatty acid and/or cholesterol content. Bile was also fractionated based on filtration through different molecular cut-off filters. […]

[4] = test system: porcine enteric calicivirus; details: Flynn and Saif, 1988; Chang et al., 2004; cited from earlier work
TCH04-577 GII.3 HuNoV [5] = assay: GII.3 replication in jejunal enteroids with acid sphingomyelinase inhibitors (RT-qPCR); type: cell-based, human norovirus; details: inhibitor present 1 hr before and during 24 hrs
Method: FIG. 34. Acid sphingomyelinase (ASM) inhibitors suppress GII.3 HuNoV replication. Jejunal enteroids were pretreated with inhibitors for 1 hr and inoculated with TCH04-577 for 1 hr, washed twice with CMGF(−) and cultured for 24 hrs in the presence of the inhibitors. RNA was extracted from cells and medium at 1 and 24 hpi and genome equivalents were analyzed by RT-qPCR.
Acid sphingomyelinase (ASM) that converts sphingomyelin into ceramide is involved in HuNoV infectivity, in at least certain embodiments.

TCH11-64 GII.4 HuNoV = assay: GII.4 infection of jejunal enteroids after cholesterol extraction or trypsin treatment (VP1-positive cells); type: cell-based, human norovirus; details: 24 hpi
Method: FIG. 35. Cholesterol extraction using methyl-β-cyclodextrin or treatment of cells with trypsin reduces HuNoV infection. Jejunal enteroids were untreated or treated for 45 min with methyl-β-cyclodextrin (MβCD) or 15 min with trypsin. Trypsin was inhibited with aprotinin and then the monolayer was washed prior to infection. MβCD was present during and after infection. Enteroids were infected with 3×10^6 genome equivalents of TCH11-64 GII.4 HuNoV. Enteroid monolayers were fixed at 24 hpi, VP1 detected by immunofluorescence and the number of VP1-positive cells counted per well.
In specific embodiments of the disclosure, HuNoV use a proteinaceous receptor in lipid rafts for infection. Lipid rafts are specialized domains of the cell membrane and are central for the spatial organization of receptors and signaling molecules. […] Identification of the proteinaceous molecule(s) that function as the receptor for HuNoV replication will allow production of new, simple cell systems that express this receptor and that will support HuNoV replication.

GII.4/2012-1 HuNoV = assay: GII.4/2012-1 replication and CPE in jejunal HIEs with polymyxin B-treated stool filtrate; type: cell-based, human norovirus; details: inoculation with polymyxin B-treated samples
Method: FIGS. 21A-21C. […] (FIG. 21A) GII.4/2012-1 stool filtrates were not treated (−) or treated (+) with 100 μg/m polymyxin B for 24 hours. Then, 9×10^5 genome equivalents of the filtrates were inoculated onto each jejunal HIE monolayer for 1 hour. The monolayers were washed twice with CMGF(−) medium and cultured in differentiation medium. […] Error bars denote standard deviation. (FIG. 21B) Gamma irradiated or non-irradiated GII.4/2012-1 stool filtrates were either not treated (−) or treated (+) with polymyxin B for 24 hours. Jejunal HIE monolayers were inoculated with […] for 1 hour as described above. […]
We next evaluated the growth characteristics of HuNoV infection by assessing cytopathic effect (CPE), antigen detection, and the kinetics of infection. […] Two particle sizes were detected (FIG. 15D), with particles of the expected size (31.6+/−3.3 nm) and some smaller particles (FIG. 15D inset, 18.5+/−3.7 nm). […] By Western blot analysis, nonstructural polyprotein synthesis and processing (as evidenced by the detection of several VPg-containing polyprotein processing intermediates) and capsid protein (VP1) production were first detected at 12 hpi in infected cells but not at 1 or 6 hpi or in mock-infected cells (FIG. 15E). Consistent with the production of virus particles (FIG. 15D), VP1 was detected in the culture supernatant by 24 hpi (FIG. 15E). […]

[6] = test system: GI.1, GII.3, GII.17 HuNoVs; assay: Replication of other HuNoV strains in jejunal HIE monolayers with components of the intestinal milieu; details: GI.1, GII.3, GII.17 in jejunal HIE monolayers
Method: The monolayers were washed three times with CMGF(−) medium and cultured for the indicated days in differentiation medium in the absence (0%) or presence of the indicated concentrations of bile. At 1 hour and the indicated time post-inoculation, the cells and medium were harvested, RNA extracted and viral genome equivalents quantified by RT-qPCR. Data represent the mean of three wells for each treatment and time point. Error bars denote standard deviation. *, P<0.05 comparing genome equivalents from 1 hpi to the indicated time points.
We next tested whether monolayer cultures of jejunal HIEs could support replication of other HuNoV strains (GI.1, GII.3, GII.17). […] Consequently, several components of the intestinal milieu were assessed for their ability to promote replication of these HuNoVs in HIE monolayers.

With `C[C@H](CCC(=O)O)[C@H]1CC[C@H]2[C@@H]3[C@H](O)C[C@@H]4C[C@H](O)CC[C@]4(C)[C@H]3C[C@H](O)[C@]12C` [CA, cholic acid] the fold induction at 500 µM (TCH04-577 GII.3 HuNoV [1]) was 49 to 63.

With `C[C@H](CCC(=O)O)[C@H]1CC[C@H]2[C@@H]3[C@H](O)C[C@@H]4C[C@H](O)CC[C@]4(C)[C@H]3CC[C@]12C` [CDCA, chenodeoxycholic acid] the “Fold increase in viral genome copies compared to no bile (0-72 hpi)” value (“Fold increase … to no bile (0-72 hpi)” for short) (TCH04-577 GII.3 HuNoV [2]; bile acid 100 uM) was “no increase”.

With `CCCCCCCCCCCCC/C=C/[C@@H](O)[C@H](CO)NC(C)=O` [Ceramide, C2-ceramide] the GII.3 replication (TCH04-577 GII.3 HuNoV [3]) was “enhances”.

`C[C@H](CCC(=O)NCC(=O)O)[C@H]1CC[C@H]2[C@@H]3[C@H](O)C[C@@H]4C[C@H](O)CC[C@]4(C)[C@H]3C[C@H](O)[C@]12C` [GCA, Glycocholic acid] showed a fold induction at 500 µM (TCH04-577 GII.3 HuNoV [1]) of 48.

In the case of `CC(CCC(=O)NCC(=O)O)C1CCC2C3C(O)CC4CC(O)CCC4(C)C3CCC12C` (stereo not shown) [GCDCA, Glycochenodeoxycholic acid], the GII.4 replication (GII.4 HuNoV) is reported as “can enhance” and the fold induction at 500 µM (TCH04-577 GII.3 HuNoV [1]) is reported as 71 to 106.

`CC(CCC(=O)NCC(=O)O)C1CCC2C3CCC4CC(O)CCC4(C)C3CC(O)C12C` (stereo not shown) [GDCA, glycodeoxycholic acid] showed a fold induction at 500 µM (TCH04-577 GII.3 HuNoV [1]) of 160.

For `C[C@H](CCC(=O)NCCS(=O)(=O)O)[C@H]1CC[C@H]2[C@@H]3[C@H](O)C[C@@H]4C[C@H](O)CC[C@]4(C)[C@H]3C[C@H](O)[C@]12C` [TCA, Taurocholic acid], the fold induction at 500 µM (TCH04-577 GII.3 HuNoV [1]) was 65.

For `C[C@H](CCC(=O)NCCS(=O)(=O)O)[C@H]1CC[C@H]2[C@@H]3[C@H](O)C[C@@H]4C[C@H](O)CC[C@]4(C)[C@H]3CC[C@]12C` [TCDCA, Taurochenodeoxycholic acid], the “Fold increase … to no bile (0-72 hpi)” value (TCH04-577 GII.3 HuNoV [2]; bile acid 500 uM) was 48-103 fold.

`C[C@H](CCC(=O)NCCS(=O)(=O)O)[C@H]1CC[C@H]2[C@@H]3CC[C@@H]4C[C@H](O)CC[C@]4(C)[C@H]3C[C@H](O)[C@]12C` [TDCA, Taurodeoxycholic acid] gave a fold induction at 500 µM (TCH04-577 GII.3 HuNoV [1]) of 95.

Work on `C[C@H](CCC(=O)NCCS(=O)(=O)O)[C@H]1CC[C@H]2[C@@H]3CC[C@@H]4C[C@H](O)CC[C@]4(C)[C@H]3CC[C@]12C` [TLCA, taurolithocholic acid] yielded a fold induction at 500 µM (TCH04-577 GII.3 HuNoV [1]) of 268.

For `C[C@H](CCC(=O)NCCS(=O)(=O)O)[C@H]1CC[C@H]2[C@@H]3[C@@H](O)C[C@@H]4C[C@H](O)CC[C@]4(C)[C@H]3CC[C@]12C` [TUDCA, Tauroursodeoxycholic acid], the “replication of porcine enteric calicivirus” value [4] is given as “did not enhance” and the fold induction at 500 µM (TCH04-577 GII.3 HuNoV [1]) is given as 27.

In the case of `C[C@H](CCC(=O)O)[C@H]1CC[C@H]2[C@@H]3[C@@H](O)C[C@@H]4C[C@H](O)CC[C@]4(C)[C@H]3CC[C@]12C` [UDCA, ursodeoxycholic acid], the “Fold increase … to no bile (0-72 hpi)” value (TCH04-577 GII.3 HuNoV [2]; bile acid 500 uM) is reported as “no increase”.

For `CN(C)CCC=C1c2ccccc2CCc2ccccc21` [amitriptyline], the GII.3 replication (TCH04-577 GII.3 HuNoV [5]) was “significantly reduced” and the “dose dependence of the effect on GII.3 replication” value (TCH04-577 GII.3 HuNoV [5]) was “dose-dependent decrease”.

With `CN(C)CCCN1c2ccccc2Sc2ccc(Cl)cc21` [chlorpromazine] the GII.3 replication (TCH04-577 GII.3 HuNoV [5]) was “significantly reduced” and the “dose dependence of the effect on GII.3 replication” value (TCH04-577 GII.3 HuNoV [5]) was “dose-dependent decrease”.

In the case of methyl-β-cyclodextrin, the “GII.4 infection (VP1-positive cells per well)” value (TCH11-64 GII.4 HuNoV) is reported as “significantly reduced”.

In the case of polymyxin B, the CPE (GII.4/2012-1 HuNoV) is reported as “not reduced”.

B1: trypsin: protease that cleaves proteins (protein, UniProt P00760 24-246, looked up)
Serine protease 1: IVGGYTCGANTVPYQVSLNSGYHFCGGSLINSQWVVSAAHCYKSGIQVRLGEDNINVVEGNEQFISASKSIVHPSYNSNTLNNDIMLIKLKSAASLNSRVASISLPTSCASAGTQCLISGWGNTKSSGTSYPDVLKCLKAPILSDSSCKSAYPGQITSNMFCAGYLEGGKDSCQGDSGGPVVCSGKLQGIVSWGSGCAQKNKPGVYTKVCNYVSWIKQTIASN
In the case of B1, the “GII.4 infection (VP1-positive cells per well)” value (TCH11-64 GII.4 HuNoV) is reported as “reduced” and the HuNoV replication [6] is reported as “failed to enhance”.
